What was measured:
Format in all cases: in vivo
Conditions in all cases: 250 g/h, evaluated after 13 days
[1] = system: Alopecurus myosuroides (ALOMY); assay: Pre-emergence herbicidal glasshouse test, percentage damage
How it was run: (§1)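 Potted plants in standard soil; pre-emergence spray after 1 d of cultivation, post-emergence after 8 d. Dose 250 g/h from an acetone/water (50:50), 0.5% Tween 20 formulation. % damage at 13 d, scored 1–5.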

Avena fatua (AVEFA) [2] = assay: as above
How it was run: as §1

[3] = system: Echinochloa crus-galli (ECHCG); assay: as above
How it was run: as §1

Lolium perenne (LOLPE) [4] = assay: as above
How it was run: as §1

Setaria faberi (SETFA) [5] = assay: as above
How it was run: as §1

Setaria faberi (SETFA) [6] = assay: Post-emergence herbicidal glasshouse test, percentage damage
How it was run: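 Wheat, barley and Setaria faberi were sprayed post-emergence after 8 days' growth (24/16 °C, 14 h light, 65% humidity) with compound in acetone/water (50:50) containing 0.5% Tween 20, at the indicated rates. On wheat, compounds were also applied with cloquintocet-mexyl at 50 g/ha. Damage was scored after 13 days on a five-point scale (5=80-100% to 1=0-19%).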

[7] = system: Alopecurus myosuroides (ALOMY); assay: as above
How it was run: as §1

Avena fatua (AVEFA) [8] = assay: as above
How it was run: as §1

[9] = system: Echinochloa crus-galli (ECHCG); assay: as above
How it was run: as §1

Lolium perenne (LOLPE) [10] = assay: as above
How it was run: as §1

Structure (SMILES)	ALOMY PRE percentage damage (five point scale) [1]	AVEFA PRE percentage damage (five point scale) (Avena fatua (AVEFA) [2])	ECHCG PRE percentage damage (five point scale) [3]	LOLPE PRE percentage damage (five point scale) (Lolium perenne (LOLPE) [4])	SETFA PRE percentage damage (five point scale) (Setaria faberi (SETFA) [5])	SETFA POST percentage damage (five point scale) (Setaria faberi (SETFA) [6])	ALOMY POST percentage damage (five point scale) [7]	AVEFA POST percentage damage (five point scale) (Avena fatua (AVEFA) [8])	ECHCG POST percentage damage (five point scale) [9]	LOLPE POST percentage damage (five point scale) (Lolium perenne (LOLPE) [10])
CC#Cc1cc(C)c(C2=C(OC(=O)OC)CC3(CCN(S(=O)(=O)C(F)(F)F)CC3)CC2=O)c(C)c1 [Compound P11]	5 (5=80-100%)	3 (3=40-59%)	5 (5=80-100%)	5 (5=80-100%)	5 (5=80-100%)	5 (5=80-100%)	5 (5=80-100%)	5 (5=80-100%)	5 (5=80-100%)	4 (4=60-79%)
CC#Cc1cc(C)c(C2=C(OC(C)=O)CC3(CCN(C(=O)NC(C)=O)CC3)CC2=O)c(C)c1 [Compound P12]	4 (4=60-79%)	4 (4=60-79%)	5 (5=80-100%)	5 (5=80-100%)	5 (5=80-100%)	5 (5=80-100%)	5 (5=80-100%)	5 (5=80-100%)	5 (5=80-100%)	5 (5=80-100%)
CC#Cc1cc(C)c(C2=C(OC(=O)OC)CC3(CCN(C(=O)NC(C)(C)C)CC3)CC2=O)c(C)c1 [Compound P13]	5 (5=80-100%)	5 (5=80-100%)	5 (5=80-100%)	5 (5=80-100%)	5 (5=80-100%)	5 (5=80-100%)	5 (5=80-100%)	5 (5=80-100%)	5 (5=80-100%)	5 (5=80-100%)
CC#Cc1cc(C)c(C2=C(OC(=O)OC)CC3(CCN(C(=O)NOC)CC3)CC2=O)c(C)c1 [Compound P14]	5 (5=80-100%)	5 (5=80-100%)	5 (5=80-100%)	5 (5=80-100%)	5 (5=80-100%)	5 (5=80-100%)	5 (5=80-100%)	5 (5=80-100%)	5 (5=80-100%)	5 (5=80-100%)
CC#Cc1cc(C)c(C2=C(OC(=O)OC)CC3(CCN(C(=O)NC4CC4)CC3)CC2=O)c(C)c1 [Compound P15]	5 (5=80-100%)	5 (5=80-100%)	5 (5=80-100%)	5 (5=80-100%)	5 (5=80-100%)	5 (5=80-100%)	5 (5=80-100%)	5 (5=80-100%)	5 (5=80-100%)	5 (5=80-100%)

Source: patent publication US12043599B2, “Herbicidal compounds” (SYNGENTA PARTICIPATIONS AG, priority 2018, dated 2024)
